# According to ChEMBL document CHEMBL5096155, “Recent advance of peptide-based molecules and nonpeptidic small-molecules modulating PD-1/PD-L1 protein-protein interaction or targeting PD-L1 protein degradation” (Eur J Med Chem, 2021):
# Square brackets hold non-standard residues; d marks the D form. Peptide text beside a SMILES is read from it. * marks the point of attachment. ξ: configuration not given here. X1 = NC(CO)C(=O)NC(Cc1ccccc1)C(=O)NCCCCN*; ξE = NC(CCC(=O)O)C(=O)O
# Columns and labels:
# [1] = Cytoprotective activity against mouse PD-1 stimulated T cell assessed as rescue of PD-1 stimulated inhibition of IFN-gamma production by ELISA; assay type: functional, cell-based
# B16-F10 [2] = test: Antitumor activity in mouse B16-F10 cells xenografted mouse model assessed as tumor growth inhibition at 15 mg/kg,sc; assay type: functional
# Splenocyte [3] = test: Rescue of cell viability in mouse PD-L1 stimulated splenocyte at 100 nM incubated for 72 hrs by CFSE proliferation assay; assay type: functional
# [4] = molecular target: T1, Programmed cell death protein 1/Programmed cell death 1 ligand 1 (Homo sapiens, UniProt Q15116+Q9NZQ7); test: Inhibition of PD-1/PD-L1 interaction (unknown origin) incubated for 15 mins by HTRF assay; assay type: protein-complex assay
# [5] = molecular target: T1, Programmed cell death protein 1/Programmed cell death 1 ligand 1; test: Inhibition of recombinant human PD-1/PD-L1 interaction incubated for 40 mins by HTRF binding assay; assay type: protein-complex assay
# [6] = Cytoprotective activity against rat PMA-stimulated PBMC cells expressing PD-1 co-cultured with human HEK293 cells expressing PD-L2 assessed as rescue of cell proliferation by cell proliferation assay; assay type: functional, cell-based
# [7] = Cytoprotective activity against rat PMA-stimulated PBMC cells expressing PD-1 co-cultured with human MDA-MB-231 cells expressing PD-L1 assessed as rescue of cell proliferation by cell proliferation assay; assay type: functional, cell-based
# [8] = molecular target: T1, Programmed cell death protein 1/Programmed cell death 1 ligand 1; test: Inhibition of PD-1/PD-L1 interaction (unknown origin) incubated for 1 to 24 hrs by HTRF assay; assay type: protein-complex assay
# [9] = molecular target: T1, Programmed cell death protein 1/Programmed cell death 1 ligand 1; test: Inhibition of PD-1/PD-L1 interaction (unknown origin) by HTRF binding assay; assay type: protein-complex assay
# Splenocyte [10] = test: Cytoprotective activity against mouse splenocyte co-cultured with MDA-MB-231 cells overexpressing PD-L1 assessed as rescue of cell proliferation at 100 nM by cell proliferation assay; assay type: functional
# B16-F10 [11] = test: Antitumor activity in mouse B16-F10 cells xenografted mouse lung metastasis model assessed as reduction in lung metastasis; assay type: functional; set-up: scale not given: the % may be the effect or the level left
# [12] = molecular target: T1, Programmed cell death protein 1/Programmed cell death 1 ligand 1; test: Inhibition of human PD-1/PD-L1 interaction by HTRF binding assay; assay type: protein-complex assay
# [13] = molecular target: T1, Programmed cell death protein 1/Programmed cell death 1 ligand 1; test: Inhibition of PD-1/PD-L1 interaction (unknown origin); assay type: protein-complex assay
# [14] = molecular target: T2, Programmed cell death 1 ligand 1 (Homo sapiens, UniProt Q9NZQ7); test: Inhibition of PD-L1 (unknown origin)
# [15] = molecular target: T3, V-type immunoglobulin domain-containing suppressor of T-cell activation (Homo sapiens, UniProt Q9H7M9); test: Inhibition of VISTA (unknown origin)
# T3 sequence (Q9H7M9 whole entry): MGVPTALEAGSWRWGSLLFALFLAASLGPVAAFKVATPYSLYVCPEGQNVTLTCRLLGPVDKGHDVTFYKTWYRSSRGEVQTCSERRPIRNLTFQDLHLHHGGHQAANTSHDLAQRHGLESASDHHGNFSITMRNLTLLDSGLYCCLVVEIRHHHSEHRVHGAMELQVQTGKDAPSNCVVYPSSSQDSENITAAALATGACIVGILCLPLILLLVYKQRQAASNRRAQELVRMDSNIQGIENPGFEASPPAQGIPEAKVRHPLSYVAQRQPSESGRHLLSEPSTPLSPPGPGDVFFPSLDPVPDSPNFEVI
# [16] = molecular target: T2, Programmed cell death 1 ligand 1; test: Binding affinity to human recombinant PD-L1 by surface plasmon resonance assay
# NCI-H460 = test: Antitumor activity in human NCI-H460 cells xenografted Balb/c mouse assessed as reduction in tumor mass at 4 mg/kg,sc administrated upto 72 hrs; assay type: functional; set-up: scale not given: the % may be the effect or the level left
# CT26 = test: Antitumor activity against mouse CT26 cells xenografted BALB/c mouse assessed as reduction in tumor growth; assay type: functional; set-up: scale not given: the % may be the effect or the level left
# T1 sequence (Q15116 whole entry): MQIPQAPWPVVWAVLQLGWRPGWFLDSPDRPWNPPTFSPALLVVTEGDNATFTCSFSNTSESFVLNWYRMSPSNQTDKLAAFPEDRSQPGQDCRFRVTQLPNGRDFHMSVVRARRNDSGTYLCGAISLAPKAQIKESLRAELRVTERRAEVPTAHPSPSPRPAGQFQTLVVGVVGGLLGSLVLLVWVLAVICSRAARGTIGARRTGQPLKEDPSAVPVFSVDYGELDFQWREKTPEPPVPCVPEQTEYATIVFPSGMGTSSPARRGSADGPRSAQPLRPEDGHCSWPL
# T1 sequence (Q9NZQ7 whole entry): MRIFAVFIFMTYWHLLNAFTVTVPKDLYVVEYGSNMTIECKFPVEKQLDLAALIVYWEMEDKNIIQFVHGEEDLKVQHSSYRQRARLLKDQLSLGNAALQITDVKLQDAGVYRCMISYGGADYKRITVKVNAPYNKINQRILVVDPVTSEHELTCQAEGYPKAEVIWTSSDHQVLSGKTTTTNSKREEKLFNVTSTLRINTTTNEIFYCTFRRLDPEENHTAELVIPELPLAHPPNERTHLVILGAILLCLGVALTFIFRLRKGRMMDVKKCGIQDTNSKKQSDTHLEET
# T2 sequence (Q9NZQ7 whole entry, the tested form may be a part): as the sequence (Q9NZQ7 whole entry) above
compound,measurement,setting,value
COc1cc(NS(=O)(=O)c2ccc(N)cc2)ncn1 [SULFAMONOMETHOXINE],IC50,[1],> 400 nM
O=C(O)[C@H](CO)NCc1cc(Cl)c(OCc2cccc(-c3ccccc3)c2Br)cc1OCc1cccnc1,inhibition in vivo at 15 mg/kg,B16-F10 [2],64.1%
C[C@@H](O)[C@H](N)c1nnc([C@H](CCC(N)=O)NC(=O)N[C@@H](CO)C(=O)O)o1,Activity,Splenocyte [3],92%
CNC(=O)C[C@@H]1NC(=O)O[C@@H]([C@H](C)O)C(=O)NCCOCCOCC(=O)N[C@@H](CCO)c2noc1n2,IC50,[4],< 10 nM
Cc1c(NC(=O)c2cc(CN3CCCC[C@H]3C(=O)O)cn(C)c2=O)cccc1-c1ccccc1,IC50,[5],< 100 nM
CC[C@H](C)[C@H](NC(=O)[C@H](CCC(N)=O)NC(=O)[C@H](C)NC(=O)[C@H](CCCCN)NC(=O)[C@H]1CCCN1C(=O)[C@H](C)NC(=O)[C@H](CC(C)C)NC(=O)[C@H](CCC(N)=O)NC(=O)[C@@H](NC(=O)[C@@H](NC(=O)[C@H](CCCNC(=N)N)NC(=O)[C@H](Cc1ccccc1)NC(=O)[C@H](CCCCNC(=O)[C@H](Cc1ccccc1)NC(=O)[C@H](CO)NC(=O)[C@H](CCC(=O)O)NC(=O)[C@H](CO)NC(=O)[C@@H](NC(=O)[C@H](CC(N)=O)NC(=O)[C@@H](N)CO)C(C)O)NC(=O)[C@H](Cc1ccccc1)NC(=O)[C@H](CO)NC(=O)[C@H](CCC(=O)O)NC(=O)[C@H](CO)NC(=O)[C@@H](NC(=O)[C@H](CC(N)=O)NC(=O)[C@@H](N)CO)[C@@H](C)O)C(C)C)[C@@H](C)O)C(=O)N[C@@H](CCCCN)C(=O)N[C@@H](CCC(=O)O)C(N)=O (some centres undefined),EC50,[6],0.72 nM
same,EC50,[7],0.41 nM
Cc1c(/C=C/c2nc(CNC(C)(CO)C(=O)O)ccc2C(F)(F)F)cccc1-c1ccc2c(c1)OCCO2 (centres undefined),IC50,[8],18 nM
Cc1c(COc2cc(OCc3cccc(C#N)c3)c(CN[C@H](CCO)C(=O)O)cc2Cl)cccc1-c1cccc(COc2cc(OCc3cccnc3)c(CN[C@@H](CCO)C(=O)O)cc2Cl)c1,IC50,[9],0.04 nM
NCCCC[C@H](NC(=O)N[C@@H](CC(N)=O)C(=O)NNC(=O)[C@@H](N)CO)C(=O)O,Activity,Splenocyte [10],87%
Cc1c(COc2cc(OCc3cncc(C#N)c3)c(CN[C@@H](CO)C(=O)O)cc2Cl)cccc1-c1cccc(OCCCN2CCC(O)CC2)c1,IC50,[9],0.48 nM
N#Cc1c(NC(=O)c2ccc(CNCCO)cn2)cccc1-c1ccccc1,IC50,[5],< 10 nM
C[C@@H](O)[C@H](NC(=O)[C@H](CC(N)=O)NC(=O)[C@@H](N)CO)C(=O)N[C@@H](CO)C(=O)NC(CCC(=O)NCCCCNC(=O)C(Cc1ccccc1)NC(=O)C(N)CO)C(N)=O (some centres undefined) (H-SNTS[ξE](X1)-NH2),Activity,B16-F10 [11],64%
COc1nc(OCc2cccc(-c3cccc(COc4ccc(CNCCNC(C)=O)c(OC)n4)c3C)c2C)ccc1CNCCNC(C)=O,IC50,[12],125 nM
C[C@H](O)[C@@H]1NC(=O)NCc2nc(no2)[C@H](CO)NC(=O)COCCOCCNC1=O,IC50,[4],< 10 nM
C[C@H](O)[C@@H]1NC(=O)N[C@H](C(N)=O)C(=O)NNC(=O)[C@H](CO)NC(=O)CCOCCOCCNC1=O,Activity,Splenocyte [3],95%
Cc1cc(CN[C@@H](CO)C(=O)O)c(OCc2cncc(C#N)c2)cc1OCc1cccc(-c2ccc3c(c2)OCCO3)c1C,IC50,[9],2.25 nM
C[C@@H](O)[C@@H]1NC(=O)C(N[C@@H](CO)C(=O)O)CCC(=O)NCCCCC(C(=O)N[C@@H](CO)C(=O)N[C@@H](Cc2ccccc2)C(N)=O)NC(=O)[C@H](CO)NC1=O (some centres undefined),Activity,B16-F10 [11],54%
COc1cc(/C=C/c2cccc(-c3ccccc3)c2)cc(OC)c1CN[C@](C)(CO)C(=O)O,IC50,[8],48 nM
C[C@@H](O)[C@H](N)c1noc([C@H](Cc2ccc(O)cc2)NC(=O)N2CCC[C@H]2C(=O)O)n1,Activity,Splenocyte [3],99%
N#Cc1c(-c2ccccc2)cccc1N1CCC(NC2CCCOC2)CC1 (centres undefined),IC50,[13],< 1000 nM
Cc1c(-c2ccccc2)cccc1-c1nc2cc(CNCCO)ccc2o1,IC50,[13],< 1000 nM
C[C@H](O)[C@H](NC(=O)N[C@@H](CC(N)=O)c1nnc([C@@H](N)CO)s1)C(=O)O,IC50,[14],37 nM
same,IC50,[15],17 nM
C[C@H](NC(=O)[C@H](Cc1ccc(O)cc1)NC(=O)[C@H](CCC(N)=O)NC(=O)CNC(=O)[C@@H](N)CO)C(=O)N[C@@H](CO)C(=O)N[C@@H](Cc1ccc(O)cc1)C(=O)N[C@@H](Cc1cnc[nH]1)C(=O)N[C@@H](CS)C(=O)N[C@@H](Cc1c[nH]c2ccccc12)C(=O)N[C@@H](CS)C(=O)N[C@@H](Cc1c[nH]c2ccccc12)C(=O)N[C@@H](CCCNC(=N)N)C(=O)N[C@@H](CC(=O)O)C(=O)N1CCC[C@H]1C(=O)NCC(=O)N[C@@H](CCCNC(=N)N)C(=O)N[C@@H](CO)C(=O)NCC(=O)NCC(=O)N[C@@H](CO)C(=O)N[C@@H](CCCCN)C(=O)O (H-SGQYASYHCWCWRDPGRSGGSK-OH),Kd,[16],94 nM
same,Activity,NCI-H460,56%
C[C@H](O)[C@H](NC(=O)N[C@@H](CC(N)=O)C(=O)NNC(=O)[C@@H](N)CO)C(=O)O,EC50,[6],40 nM
same,EC50,[7],30 nM
same,Activity,Splenocyte [3],68%
same,Activity,Splenocyte [10],87%
C[C@H](O)[C@@H]1NC(=O)CCOCCOCCNC(=O)[C@H](CO)NC(=O)N[C@H](C(N)=O)C(=O)NNC1=O,Activity,Splenocyte [3],94%
H-GNWDYNSQRAQLYNQ-OH,Kd,[16],1380 nM
Cc1c(COc2cc(OCc3cccc(C#N)c3)c(CN[C@@H](CO)C(=O)O)cc2Cl)cccc1-c1ccc2c(c1)OCCO2,IC50,[9],1.48 nM
CC(O)[C@H](N)c1nnc([C@]2(NC(=O)N[C@@H](CO)C(=O)O)C[C@H](CC#N)C2)o1 (some centres undefined),Activity,CT26,63.7%
